According to ChEMBL document CHEMBL1201862, “PubChem BioAssay data set” (2004):
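Interpolation was linear, between the two tested concentrations surrounding the appropriate level; five concentrations were tested over 48 hours in 96-well plates. Here, GI50 denotes the concentration required for 50% inhibition of growth.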 Activity calls are given as the source filed them. No stated cut-off is given here; in the data, active = GI50 up to about 1.1 µM and inactive = higher.

How the values were obtained:
Test in all cases: NCI tumour cell line growth inhibition, 48 h
[1] = test system: SK-MEL-5
[2] = test system: HCC 2998
[3] = test system: T47D
[4] = test system: UO-31
[5] = test system: RPMI-8226
[6] = test system: NCI/ADR-RES
[7] = test system: PC-3
[8] = test system: DU-145
[9] = test system: MCF7
[10] = test system: HL-60
[11] = test system: SN12C
[12] = test system: NCI-H460
[13] = test system: LOX IMVI
[14] = test system: IGROV-1
[15] = test system: SF-295
[16] = test system: NCI-H226
[17] = test system: A549
[18] = test system: SF-268
[19] = test system: SW-620
[20] = test system: U-251

Measured: GI50

O=C1N=C2SC=C(NC(=S)Nc3ccccc3)N2NC12c1ccccc1-c1ccccc12
inactive: [1] > 10 µM | [2] > 10 µM | [3] 5.7 µM | [4] 8.67 µM | [5] > 10 µM | [6] > 10 µM | [7] > 10 µM | [8] > 10 µM | [9] > 10 µM | [10] > 10 µM | [11] > 10 µM | [12] > 10 µM | [13] > 10 µM | [14] > 10 µM | [15] > 10 µM | [16] > 10 µM | [17] > 10 µM | [18] > 10 µM | [19] > 10 µM

CC[C@]12C=CCN3CC[C@@]4(c5cc(N=O)c(OC)cc5N(C)[C@H]4[C@@](O)(C(=O)NC(Cc4c[nH]c5ccccc45)C(=O)OC)[C@@H]1O)[C@@H]32 (some centres not stated)
inactive: [1] 14.8 µM | [2] 15.6 µM | [3] 6.93 µM | [4] 23.1 µM | [6] > 100 µM | [7] 11.5 µM | [8] 17.2 µM | [9] 15.3 µM | [10] 2.87 µM | [11] 26.4 µM | [12] 19.1 µM | [13] 16.7 µM | [14] 17.7 µM | [15] 17.1 µM | [20] 7.33 µM | [16] 24.5 µM | [17] 29.4 µM | [18] 24.2 µM | [19] 6.93 µM

COc1ccc(/C=N/NC(=O)c2ccccc2Nc2ccccc2C(=O)N/N=C/c2ccc(OC)c(OC)c2)cc1OC
inactive: [1] > 100 µM | [2] > 100 µM | [3] > 100 µM | [4] > 100 µM | [5] > 100 µM | [6] > 100 µM | [7] > 100 µM | [8] > 100 µM | [9] > 100 µM | [10] > 100 µM | [11] > 100 µM | [12] > 100 µM | [14] > 100 µM | [15] 39.9 µM | [20] > 100 µM | [16] > 100 µM | [17] > 100 µM | [18] > 100 µM | [19] > 100 µM

O=C1Oc2ccccc2C(=O)/C1=C/N1C(=O)N/C(=C\c2cccc(O)c2)C1=O
inactive: [1] 70.8 µM | [2] 55.7 µM | [3] 54.2 µM | [4] 29.5 µM | [6] > 100 µM | [7] 54.3 µM | [8] 72.9 µM | [9] > 100 µM | [10] 6.87 µM | [11] 69.5 µM | [12] 59 µM | [13] > 100 µM | [14] 31.3 µM | [15] 67.3 µM | [20] > 100 µM | [16] > 100 µM | [17] > 100 µM | [19] 83.4 µM

CCOC(=O)CN1CCNCCN(CC(=O)OCC)CCNCC1
inactive: [1] > 100 µM | [2] > 100 µM | [3] > 100 µM | [4] 52.6 µM | [5] > 100 µM | [6] > 100 µM | [7] > 100 µM | [8] > 100 µM | [9] > 100 µM | [10] > 100 µM | [11] > 100 µM | [12] 90.4 µM | [13] > 100 µM | [14] > 100 µM | [15] > 100 µM | [20] > 100 µM | [16] > 100 µM | [17] > 100 µM | [19] > 10 µM

Cc1cc(C)c2c(SCc3ccc(Cl)cc3Cl)nc(N)nc2n1
inactive: [1] > 100 µM | [3] 17.2 µM | [4] 23.5 µM | [5] 60.7 µM | [6] > 100 µM | [7] 35.6 µM | [8] > 100 µM | [9] 31.6 µM | [10] > 100 µM | [11] 21.2 µM | [12] 21.7 µM | [13] 28.9 µM | [14] 28.7 µM | [15] > 100 µM | [20] 36.5 µM | [16] > 100 µM | [17] 36.3 µM | [18] > 100 µM | [19] > 100 µM

C(=N\Cc1ccccc1)/c1ccccc1-c1ccccc1/C=N/Cc1ccccc1
inactive: [1] > 7.03 µM | [3] 4.99 µM | [4] > 10 µM | [5] 3.01 µM | [6] > 10 µM | [7] > 10 µM | [8] > 10 µM | [9] 3.82 µM | [10] 2.36 µM | [11] > 10 µM | [12] > 8.34 µM | [13] 5.42 µM | [14] > 7.46 µM | [15] > 10 µM | [20] 6.5 µM | [16] > 10 µM | [17] > 10 µM | [18] > 10 µM | [19] > 10 µM
